Assay results: ChEMBL document CHEMBL1212929, “Glucosylated deferiprone and its brain uptake: implications for developing glucosylated hydroxypyridinone analogues intended to cross the blood-brain barrier” (J Med Chem, 2010)

Tests used:
[1] = Biodistribution in Dunkin-Hartley guinea pig brain parenchyma at 800 uM, iv after 20 mins using [3H]mannitol vascular space marker by scintillation counting; assay type: ADME, organism-based, Cavia porcellus; conditions: in vivo
[2] = Biodistribution in Dunkin-Hartley guinea pig brain at 800 uM, iv after 20 mins using [3H]mannitol vascular space marker by scintillation counting; assay type: ADME, organism-based, Cavia porcellus; conditions: in vivo

Compound	Drug uptake [1] [mL/g]	Drug uptake [2] [mL/g]
Cc1c(O[C@@H]2O[C@H](CO)[C@@H](O)[C@H](O)[C@H]2O)c(=O)ccn1C	< 0.001	< 0.001
Cc1c(O)c(=O)ccn1C [DEFERIPRONE]	0.044	0.052
